Data taken from the CheMixHub ionic liquid set.

Test: xn = mol fraction of the nth substance listed

C=Cn1cc[n+](CCCC)c1.NCC(=O)[O-] + O
101.3 kPa
Conditions | electrical conductivity [S/m] | viscosity [mPa·s]
293.15 K, x1 = 0.5 | – | 59.3
293.15 K, x1 = 0.9 | – | 1599
303.15 K, x1 = 0.5 | 2.58 | 43.4
303.15 K, x1 = 1 | 0.009 | 9300
308.15 K, x1 = 0.1 | 1.11 | –
308.15 K, x1 = 0.7 | 1.99 | –
308.15 K, x1 = 0.9 | 0.48 | –
308.15 K, x1 = 1 | 0.012 | –
318.15 K, x1 = 0.5 | 3.58 | –
333.15 K, x1 = 0.3 | – | 10.48
333.15 K, x1 = 1 | – | 1753
343.15 K, x1 = 0.3 | – | 10.08
343.15 K, x1 = 1 | – | 1089
353.15 K, x1 = 0.5 | – | 21.66
353.15 K, x1 = 0.9 | – | 520
353.15 K, x1 = 1 | – | 730

CC(=O)[O-].CCOCCn1cc[n+](C)c1 + O
100 kPa
Conditions | electrical conductivity [S/m] | viscosity [mPa·s]
293.15 K, x1 = 0.9129 | 0.288 | 35.75
293.15 K, x1 = 0.9447 | 0.25 | 36.71
298.15 K, x1 = 0.9447 | 0.31 | 28.98
303.15 K, x1 = 0.9447 | 0.394 | 23.12
308.15 K, x1 = 0.8821 | 0.586 | 17.7
313.15 K, x1 = 0.8524 | 0.764 | 14.07
313.15 K, x1 = 0.8821 | 0.719 | 14.45
313.15 K, x1 = 1 | 0.568 | 15.8

CC(=O)[O-].COCCn1cc[n+](C)c1 + O
100 kPa
Conditions | electrical conductivity [S/m] | viscosity [mPa·s]
293.15 K, x1 = 0.8395 | 0.408 | 54.79
293.15 K, x1 = 0.8942 | 0.338 | 58.87
303.15 K, x1 = 0.8942 | 0.495 | 32.66
308.15 K, x1 = 0.8659 | 0.636 | 25.93
318.15 K, x1 = 0.8659 | 0.925 | 17.73

CCC(=O)[O-].OCC[NH2+]c1ccccc1 + O
303.15 K, 100 kPa
Conditions | electrical conductivity [S/m]
x2 = 0.01476 | 0.000353
x2 = 0.03394 | 0.000354
x2 = 0.0417 | 0.000355
x2 = 0.05414 | 0.000356

CCCC(=O)[O-].OCC[NH2+]c1ccccc1 + O
303.15 K, 100 kPa
Conditions | electrical conductivity [S/m]
x2 = 0.0163 | 0.000469
x2 = 0.03811 | 0.00047
x2 = 0.05476 | 0.000471
x2 = 0.07271 | 0.000472

CCCCCCCCCCCCCCCC[N+](C)(C)C.[Br-] + O
Conditions | viscosity [mPa·s]
298.15 K, 100 kPa, x1 = 7.21e-06 | 0.896
298.15 K, 100 kPa, x1 = 2.162e-05 | 0.9
298.15 K, 100 kPa, x1 = 7.207e-05 | 0.8804
298.15 K, 101 kPa, x1 = 1.46e-05 | 0.905
298.15 K, 101 kPa, x1 = 1.64e-05 | 0.9071
298.15 K, 101 kPa, x1 = 1.802e-05 | 0.9069
298.15 K, 101 kPa, x1 = 3.622e-05 | 0.9141
298.15 K, 101 kPa, x1 = 5.496e-05 | 0.9181
298.15 K, 101 kPa, x1 = 6.937e-05 | 0.9203
298.15 K, 101 kPa, x1 = 9.225e-05 | 0.9267
298.15 K, 101 kPa, x1 = 0.0001067 | 0.933
298.15 K, 101 kPa, x1 = 0.0001193 | 0.9362
298.15 K, 101 kPa, x1 = 0.0001429 | 0.9436
298.15 K, 101 kPa, x1 = 0.0001602 | 0.9481
298.15 K, 101 kPa, x1 = 0.0001802 | 0.9511
298.15 K, 101 kPa, x1 = 0.0002057 | 0.9556
298.15 K, 101 kPa, x1 = 0.000211 | 0.9553
298.15 K, 101 kPa, x1 = 0.000245 | 0.9662
298.15 K, 101 kPa, x1 = 0.0002573 | 0.9651
298.15 K, 101 kPa, x1 = 0.0002724 | 0.9675
303.15 K, 100 kPa, x1 = 7.207e-05 | 0.7984
308.15 K, 100 kPa, x1 = 7.21e-06 | 0.742
308.15 K, 100 kPa, x1 = 2.162e-05 | 0.745
308.15 K, 100 kPa, x1 = 7.207e-05 | 0.7583

298.15 K, 101 kPa, frequency 0.001 MHz
Conditions | electrical conductivity [S/m]
x1 = 1.09e-06 | 0.001
x1 = 2.34e-06 | 0.00165
x1 = 3.39e-06 | 0.00255
x1 = 4.43e-06 | 0.00305
x1 = 5.57e-06 | 0.00366
x1 = 6.72e-06 | 0.00441
x1 = 7.97e-06 | 0.00511
x1 = 8.91e-06 | 0.00577
x1 = 1.12e-05 | 0.00697
x1 = 1.213e-05 | 0.00757
x1 = 1.307e-05 | 0.00823
x1 = 1.411e-05 | 0.00873
x1 = 1.526e-05 | 0.00943
x1 = 1.63e-05 | 0.00978
x1 = 1.734e-05 | 0.0102
x1 = 1.922e-05 | 0.0105
x1 = 1.995e-05 | 0.0108
x1 = 2.172e-05 | 0.0111
x1 = 2.276e-05 | 0.0113
x1 = 2.443e-05 | 0.0115
x1 = 2.599e-05 | 0.0117
x1 = 2.734e-05 | 0.012
x1 = 2.859e-05 | 0.0122

CCCCCCCCCCCCCCCC[n+]1ccccc1.[Br-] + O
100 kPa, x1 = 9.009e-05
Conditions | electrical conductivity [S/m]
298.15 K | 0.021
303.15 K | 0.021
308.15 K | 0.022
313.15 K | 0.024

CCCCCCCCCCCCCC[P+](CCCCCC)(CCCCCC)CCCCCC.[Br-] + O
100 kPa, x2 = 0.68
Conditions | viscosity [mPa·s]
303.15 K | 180.5
353.15 K | 22.85
